# Values of other authors as cited in patent publication US6225288A, “Gamma-ketoacid dipeptides as inhibitors of caspase-3” (Merk Frosst Canada & Co., priority 2000, dated 2001).
# pKi: −log10 of the molar value.
# Assays:
# caspase-3 = biological target: T1, caspase-3 (Homo sapiens, UniProt P42574)
# T1 sequence (P42574 29-175 limits assumed): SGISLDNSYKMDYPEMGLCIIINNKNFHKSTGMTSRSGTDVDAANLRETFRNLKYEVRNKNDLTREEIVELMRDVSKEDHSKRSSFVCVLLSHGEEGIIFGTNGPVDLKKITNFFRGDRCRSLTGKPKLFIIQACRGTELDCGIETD
# T1 sequence (P42574 176-277 limits assumed): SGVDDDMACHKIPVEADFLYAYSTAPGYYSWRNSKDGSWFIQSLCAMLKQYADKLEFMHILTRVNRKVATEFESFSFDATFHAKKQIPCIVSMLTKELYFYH
# caspase-1 = biological target: T2, caspase-1 (Homo sapiens, UniProt P29466)
# T2 sequence (P29466 120-297 limits assumed): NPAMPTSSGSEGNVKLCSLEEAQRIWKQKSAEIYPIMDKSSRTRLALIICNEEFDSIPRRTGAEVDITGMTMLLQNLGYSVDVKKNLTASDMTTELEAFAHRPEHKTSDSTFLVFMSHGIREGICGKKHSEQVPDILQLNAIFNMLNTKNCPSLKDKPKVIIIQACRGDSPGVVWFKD
# T2 sequence (P29466 317-404 limits assumed): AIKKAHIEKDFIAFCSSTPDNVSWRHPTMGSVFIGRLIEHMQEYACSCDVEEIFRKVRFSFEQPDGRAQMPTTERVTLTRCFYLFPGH
substance,measurement,setting,value
Ac-YVAD-CHO,pKi,caspase-3,4.92
same,pKi,caspase-1,> 9.00
